# From patent publication US4382923A, “Tetrapeptide acylhydrazides, their production and use” (Takeda Chemical Industries, Ltd., priority 1980, dated 1983)
# Tests used:
# [1] = tested on: Slc:ICR mice; assay: Phenylquinone writhing method; type: in vivo; details: oral route; reference
# Description: Phenylquinone writhing method
# The compound (I) of the present invention was administered orally or subcutaneously to Slc:ICR mice weighing 18-20 g. According to the method of E. Siegmund, R. Cadmus and G. Lu [Proc. Soc.Exp.Biol, Med. 95, 729 (1957)], 0.02% phenylquinone in 5% ethanol saline was injected intraperitoneally in a dose of 0.1 ml/10 g body weight 30 min. after administration of the compound (I). The frequency of abdominal writhing was then counted for 20 min. Analgesic effect was indicated by comparing test group with control group.
# [2] = direct intracerebral administration; cited from earlier work
# [3] = intravenous route; cited from earlier work
Molecule,"effective dose, analgesic activity (abdominal writhing) [1] [mg/kg]",morphinomimetic activity [2],analgesic effect [3]
CN1CC[C@]23c4c5ccc(O)c4O[C@H]2[C@@H](O)C=C[C@H]3[C@H]1C5 [morphine],2.5,,
H-Tyr-Gly-Gly-Phe-Leu-OH,,show morphinomimetic activity,do not produce analgesic effects
"H-Tyr-Gly-Gly-Phe-Met-OH (H-YGGFM-OH) [enkephalin, pentapeptide isolated from the pig brain]",,show morphinomimetic activity,do not produce analgesic effects
"β-endorphin (YGGFMTSEKSQTPLVTLFKNAIIKNAYKKGE; Beta-endorphin; UniProt P01189 237-267, looked up) [polypeptide consisting of 31 amino acid moieties, peptide-type analgesic]",,,overt analgesic action
